Data on 21 molecules can be found in US7868003B2, “Substituted 4-phenyltetrahydroisoquinolines, pharmaceutical compositions comprising them and therapeutic methods for their use” (Sanofi-Aventis, priority 2005, dated 2011).

Counter-ions that a name gives are not always drawn.

As usually defined, the IC50 is the midpoint of a concentration-inhibition curve.

The experiment concerns the target T1, sodium-proton exchanger subtype 3 (NHE3) (Homo sapiens, UniProt P48764).
T1 construct: expressed in transfected cells
T1 sequence (P48764 26-834): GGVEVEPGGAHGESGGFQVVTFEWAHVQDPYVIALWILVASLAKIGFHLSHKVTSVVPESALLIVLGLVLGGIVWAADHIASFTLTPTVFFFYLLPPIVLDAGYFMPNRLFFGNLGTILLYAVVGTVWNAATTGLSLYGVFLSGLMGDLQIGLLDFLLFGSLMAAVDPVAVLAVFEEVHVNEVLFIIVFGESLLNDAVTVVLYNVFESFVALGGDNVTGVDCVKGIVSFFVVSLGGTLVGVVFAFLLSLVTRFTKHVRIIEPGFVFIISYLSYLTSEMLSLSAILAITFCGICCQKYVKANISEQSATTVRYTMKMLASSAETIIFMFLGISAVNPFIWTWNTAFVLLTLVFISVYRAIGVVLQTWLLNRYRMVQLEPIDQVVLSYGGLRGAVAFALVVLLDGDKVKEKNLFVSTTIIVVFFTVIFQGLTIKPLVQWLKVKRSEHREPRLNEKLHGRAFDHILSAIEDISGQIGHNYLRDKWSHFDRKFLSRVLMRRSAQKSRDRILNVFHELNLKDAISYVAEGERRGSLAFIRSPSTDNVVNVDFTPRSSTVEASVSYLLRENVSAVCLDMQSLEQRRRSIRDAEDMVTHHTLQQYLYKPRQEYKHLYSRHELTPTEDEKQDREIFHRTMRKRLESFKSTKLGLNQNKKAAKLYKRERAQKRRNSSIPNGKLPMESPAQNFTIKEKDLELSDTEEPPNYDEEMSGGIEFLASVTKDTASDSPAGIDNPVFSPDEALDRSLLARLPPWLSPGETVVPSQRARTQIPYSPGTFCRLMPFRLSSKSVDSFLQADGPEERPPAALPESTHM
The experiment is described as follows: recovery of intracellular pH (pHi) of LAP1 cells stably expressing NHE3 after acidification (BCECF, FLIPR). The following applies: pH recovery in percent of maximum recovery, XLFit, read-out: IC50 (inhibitory action on the NHE3). It is filed as cell-based. As for the experimental part:
In this test, the recovery in the intracellular pH (pHi) of LAP1 cells, which stably express the sodium-proton exchanger subtype 3 (NHE3), after an acidification was determined. This recovery sets in even under bicarbonate-free conditions in the case of functioning NHE3. To this end, the pHi was determined with the pH-sensitive fluorescent dye BCECF (Molecular Probes, Eugene, Oreg., USA; the precursor BCECF-AM is used). The cells were first incubated with BCECF (5 μM BCECF-AM) in NH4Cl buffer (NH4Cl buffer: 115 mM cholineCl, 20 mM NH4Cl, 5 mM KCl, 1 mM CaCl2, 1 mM MgCl2, 20 mM Hepes, 5 mM glucose; a pH of 7.4 is established with 1 M KOH). The intracellular acidification was induced by washing the cells incubated in NH4Cl buffer with NH4Cl-free buffer (133.8 mM choline chloride, 4.7 mM KCl, 1.25 mM CaCl2, 1.25 mM MgCl2, 0.97 mM K2HPO4, 0.23 mM KH2PO4, 5 mM Hepes, 5 mM glucose; a pH of 7.4 is established with 1 M KOH). After the washing operation, 90 μl of the NH4Cl-free buffer were left on the cells. The pH recovery was started by the addition of 90 μl of Na^+-containing buffer (133.8 mM NaCl, 4.7 mM KCl, 1.25 mM CaCl2, 1.25 mM MgCl2, 0.97 mM Na2HPO4, 0.23 mM NaH2PO4, 10 mM Hepes, 5 mM glucose; a pH of 7.4 is established with 1 M NaOH) in the analytical instrument (FLIPR, “Fluorometric Imaging Plate Reader”, Molecular Devices, Sunnyvale, Calif., USA). The BCECF fluorescence was determined at an excitation wavelength of 498 nm and the FLIPR emission filter 1 (band gap from 510 to 570 nm). The subsequent changes in fluorescence were registered for two minutes as a measure of the pH recovery. For the calculation of the NHE3-inhibitory potential of the tested substances, the cells were tested first in buffers in which full pH recovery, or none at all, took place. For full pH recovery (100%), the cells were incubated in Na^+-containing buffer (see above), and Na^+-free buffer for the determination of the 0% value (see above). The substances to be tested were made up in Na^+-containing buffer. The recovery in the intracellular pH at each tested concentration of a substance was expressed in percent of the maximum recovery. From the percentages of the pH recovery, the IC50 value of the particular substance for the NHE3 was calculated by means of the program XLFit (idbs, Surrey, UK).

With `CSCCC1NC(=O)N(c2ccccc2[C@@H]2CN(C)Cc3c(Cl)cc(Cl)cc32)C1=O` (mixture of isomers) [Example 57, (R and S)-3-[2-((R)-6,8-Dichloro-2-methyl-1,2,3,4-tetrahydroisoquinolin-4-yl)phenyl]-5-(2-methylsulfanylethyl)imidazolidine-2,4-dione trifluoroacetic acid salt], the IC50 was found to be 1400 nM.

For `CN1Cc2c(Cl)cc(Cl)cc2[C@H](c2cccc(N3C(=O)CNC3=O)c2)C1` [Example 4, 3-[3-((S)-6,8-Dichloro-2-methyl-1,2,3,4-tetrahydroisoquinolin-4-yl)phenyl]-imidazolidine-2,4-dione hydrochloride], the 50% inhibitory concentration (IC50) came out at 129 nM.

In the case of `CN1Cc2c(Cl)cc(Cl)cc2[C@H](c2ccccc2N2C(=O)CCC2=O)C1` [Example 7, 1-[2-((R)-6,8-Dichloro-2-methyl-1,2,3,4-tetrahydroisoquinolin-4-yl)phenyl]-pyrrolidine-2,5-dione hydrochloride], the concentration for half-maximal inhibition (IC50) came to 39 nM.

As to `CN1Cc2c(Cl)cc(Cl)cc2C(c2ccc(N3CCNS3(=O)=O)cc2)C1` (stereo not drawn) [Example 8, 6,8-Dichloro-4-[4-(1,1-dioxo-1-λ^6-[1,2,5]thiadiazolidin-2-yl)phenyl]-2-methyl-1,2,3,4-tetrahydroisoquinoline], the IC50 worked out at 2590 nM.

As for `CN1Cc2c(Cl)cc(Cl)cc2[C@H](c2cccc(N3C(=O)C=CC3=O)c2)C1` [Example 10], the IC50 came out at 47 nM.

Consider `CN1Cc2c(Cl)cc(Cl)cc2[C@H](c2ccc(N3C(=O)CCC3=O)cc2)C1` [Example 14], for which the IC50 worked out at 119 nM.

For `CN1Cc2c(Cl)cc(Cl)cc2[C@H](c2ccc(N3C(=O)CCCC3=O)cc2)C1` [Example 16], the IC50 came to 222 nM.

For `CC1CC(C)C(=O)N(c2ccccc2[C@@H]2CN(C)Cc3c(Cl)cc(Cl)cc32)C1=O` (stereo partly drawn) [Example 29], the IC50 amounted to 1200 nM.

Regarding `CN1Cc2c(Cl)cc(Cl)cc2[C@@H](c2ccccc2N2C(=O)CCC2=O)C1` [Example 34], the IC50 is 29200 nM.

In the case of `CN1Cc2c(Cl)cc(Cl)cc2[C@H](c2ccccc2N2CCCC2=O)C1` [Example 35, 1-[2-((R)-6,8-Dichloro-2-methyl-1,2,3,4-tetrahydroisoquinolin-4-yl)phenyl]-pyrrolidin-2-one trifluoroacetate], the IC50 worked out at 82 nM.

Regarding `CN1Cc2c(Cl)cc(Cl)cc2[C@H](c2cccc(N3CCCCC3=O)c2)C1` [Example 38, 1-[3-((S)-6,8-Dichloro-2-methyl-1,2,3,4-tetrahydroisoquinolin-4-yl)phenyl]-piperidin-2-one], the IC50 stood at 461 nM.

Take `CN1Cc2c(Cl)cc(Cl)cc2[C@H](c2ccccc2-n2cc[nH]c2=O)C1` [Example 40, 1-[2-((R)-6,8-Dichloro-2-methyl-1,2,3,4-tetrahydroisoquinolin-4-yl)phenyl]-1,3-dihydroimidazol-2-one hydrochloride]: the concentration for half-maximal inhibition (IC50) amounted to 131 nM.

In the case of `CN1Cc2c(Cl)cc(Cl)cc2[C@H](c2ccccc2N2C(=O)CSC2=O)C1` [Example 42, 3-[2-((R)-6,8-Dichloro-2-methyl-1,2,3,4-tetrahydroisoquinolin-4-yl)phenyl]-thiazolidine-2,4-dione], the IC50 turned out to be 69 nM.

As to `CN1Cc2c(Cl)cc(Cl)cc2[C@H](c2ccccc2N2C(=O)COC2=O)C1` [Example 43, 3-[2-((R)-6,8-Dichloro-2-methyl-1,2,3,4-tetrahydroisoquinolin-4-yl)phenyl]-oxazolidine-2,4-dione], the IC50 stood at 49 nM.

On to `CN1Cc2c(Cl)cc(Cl)cc2[C@H](c2ccccc2N2C(=O)COCC2=O)C1` [Example 44, 4-[2-((R)-6,8-Dichloro-2-methyl-1,2,3,4-tetrahydroisoquinolin-4-yl)phenyl]-morpholine-3,5-dione trifluoroacetic acid salt], for which the IC50 is 220 nM.

Consider `CN1Cc2c(Cl)cc(Cl)cc2[C@H](c2ccccc2N2CCOC2=O)C1` [Example 46, 3-[2-((R)-6,8-Dichloro-2-methyl-1,2,3,4-tetrahydroisoquinolin-4-yl)phenyl]-oxazolidin-2-one], for which the IC50 amounted to 220 nM.

Take `CN1Cc2c(Cl)cc(Cl)cc2[C@H](c2ccccc2N2CCCS2(=O)=O)C1` [Example 51, (R)-6,8-Dichloro-4-[2-(1,1-dioxo-1-λ^6-isothiazolidin-2-yl)phenyl]-2-methyl-1,2,3,4-tetrahydroisoquinoline hydrochloride]: the half-inhibitory concentration (IC50) was found to be 141 nM.

With `O=C1CCC(=O)N1c1ccccc1[C@@H]1CNCc2c(Cl)cc(Cl)cc21` [Example 52, 1-[2-((R)-6,8-Dichloro-1,2,3,4-tetrahydroisoquinolin-4-yl)phenyl]-pyrrolidine-2,5-dione trifluoroacetic acid salt], the IC50 came out at 12300 nM.

With `CN1CC(=O)N(c2ccccc2[C@@H]2CN(C3CC3)Cc3c(Cl)cc(Cl)cc32)C1=O` [Example 55, 3-[2-((R)-6,8-Dichloro-2-cyclopropyl-1,2,3,4-tetrahydroisoquinolin-4-yl)-phenyl]-1-methylimidazolidine-2,4-dione hydrochloride], the half-inhibitory concentration (IC50) was determined as 120 nM.

Turning to `CC(C)CC1NC(=O)N(c2ccccc2[C@@H]2CN(C)Cc3c(Cl)cc(Cl)cc32)C1=O` (stereo partly drawn) [Example 58], the IC50 turned out to be 7400 nM.

On to `CN1Cc2c(Br)cc(Cl)cc2C(c2ccccc2N2CCCC2=O)C1` (stereo not drawn) [Example 64, 1-[2-(8-Bromo-6-chloro-2-methyl-1,2,3,4-tetrahydroisoquinolin-4-yl)-phenyl]pyrrolidin-2-one], for which the 50% inhibitory concentration (IC50) came out at 250 nM.
